According to PubChem BioAssay AID248 (DTP/NCI, 2004):
Inconclusive results and toxic doses are left out. No stated cut-off is given here; in the data, active means T/C of 150% or more; inactive means T/C below 125%.

Test system: L1210 leukemia ip in BDF1 mice, survival T/C
Experiment: NCI In Vivo Anticancer Drug Screen. Data for tumor model L1210 Leukemia (intraperitoneal) in B6D2F1 (BDF1) mice
Conditions: endpoint: mean survival time, higher = longer survival
Outline: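 Each compound was tested against a transplantable tumor grown in mice. The endpoint was survival, with treated animals benchmarked against vehicle controls as a simple ratio.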

[1] = dose: 100.0 mg/kg/injection, schedule: Q04DX002 (ip), vehicle: Klucel (hydroxypropylcellulose) (HPC)
[2] = dose: 200.0 mg/kg/injection, schedule: Q04DX002 (ip), vehicle: Klucel (hydroxypropylcellulose) (HPC)
[3] = dose: 400.0 mg/kg/injection, schedule: Q04DX002 (ip), vehicle: Klucel (hydroxypropylcellulose) (HPC)
[4] = dose: 100.0 mg/kg/injection, schedule: Q04DX003 (ip), vehicle: Klucel (hydroxypropylcellulose) (HPC)
[5] = dose: 200.0 mg/kg/injection, schedule: Q04DX003 (ip), vehicle: Klucel (hydroxypropylcellulose) (HPC)
[6] = dose: 400.0 mg/kg/injection, schedule: Q04DX003 (ip), vehicle: Klucel (hydroxypropylcellulose) (HPC)
[7] = dose: 100.0 mg/kg/injection, schedule: Q01DX009 (ip), vehicle: saline with Tween-80
[8] = dose: 100.0 mg/kg/injection, schedule: Q04DX003 (ip), vehicle: saline with Tween-80
[9] = dose: 200.0 mg/kg/injection, schedule: Q01DX009 (ip), vehicle: saline with Tween-80
[10] = dose: 200.0 mg/kg/injection, schedule: Q04DX003 (ip), vehicle: saline with Tween-80
[11] = dose: 400.0 mg/kg/injection, schedule: Q01DX009 (ip), vehicle: saline with Tween-80
[12] = dose: 400.0 mg/kg/injection, schedule: Q04DX003 (ip), vehicle: saline with Tween-80
[13] = dose: 100.0 mg/kg/injection, schedule: Q04DX003 (ip), vehicle: saline
[14] = dose: 200.0 mg/kg/injection, schedule: Q04DX003 (ip), vehicle: saline
[15] = dose: 400.0 mg/kg/injection, schedule: Q04DX003 (ip), vehicle: saline
[16] = dose: 100.0 mg/kg/injection, schedule: Q01DX009 (ip), vehicle: saline

Measured: T/C

O=C(/C=C\c1ccccc1)OCc1ccccc1CN1CCCCC1
inactive: [1] 108 % of control | [2] 116 % of control | [3] 90 % of control

CC(=O)C1CCCC23CC(CC12)C(C)(C)C3Br (stereo not given)
inactive: [4] 100 % of control | [5] 103 % of control | [6] 97 % of control

O=C(Nc1ccc2c(c1)OCO2)O/N=C\c1ccccc1
inactive: [7] 89 % of control | [8] 103 % of control | [9] 91 % of control | [10] 97 % of control | [11] 91 % of control | [12] 89 % of control

NC(N)=NN=C1CCC(C2CCCCC2)CC1 (stereo not given)
inactive: dose: 15.0 mg/kg/injection, schedule: Q01DX Z (ip), vehicle: methylcellulose (MC) 95 % of control | dose: 30.0 mg/kg/injection, schedule: Q01DX Z (ip), vehicle: methylcellulose (MC) 97 % of control | dose: 30.0 mg/kg/injection, schedule: Q01DX Z (oral), vehicle: methylcellulose (MC) 92 % of control | dose: 60.0 mg/kg/injection, schedule: Q01DX Z (ip), vehicle: methylcellulose (MC) 92 % of control | dose: 60.0 mg/kg/injection, schedule: Q01DX Z (oral), vehicle: methylcellulose (MC) 92 % of control | dose: 120.0 mg/kg/injection, schedule: Q01DX Z (ip), vehicle: methylcellulose (MC) 92 % of control | dose: 120.0 mg/kg/injection, schedule: Q01DX Z (oral), vehicle: methylcellulose (MC) 93 % of control

CC(C)(C)N1OC1c1cccc(Cl)c1 (stereo not given)
inactive: dose: 100.0 mg/kg/injection, schedule: Q01DX001 (ip), vehicle: other 95 % of control | [4] 98 % of control | dose: 200.0 mg/kg/injection, schedule: Q01DX001 (ip), vehicle: other 94 % of control | [5] 93 % of control | dose: 400.0 mg/kg/injection, schedule: Q01DX001 (ip), vehicle: other 97 % of control | [6] 101 % of control

CCCCCCCCCOCC(O)COc1ccccc1[N+](=O)[O-] (stereo not given)
inactive: dose: 100.0 mg/kg/injection, schedule: Q04DX003 (ip), vehicle: saline sonified 113 % of control | dose: 200.0 mg/kg/injection, schedule: Q04DX003 (ip), vehicle: saline sonified 95 % of control | dose: 400.0 mg/kg/injection, schedule: Q04DX003 (ip), vehicle: saline sonified 98 % of control

O=C(Nc1ccc(CCC2=NCCCN2)cc1)c1ccc(C(=O)Nc2ccc(CCC3=NCCCN3)cc2)cc1
inactive: dose: 60.0 mg/kg/injection, schedule: Q01DX Z (ip), vehicle: saline 118 % of control | dose: 120.0 mg/kg/injection, schedule: Q01DX Z (ip), vehicle: saline 110 % of control | dose: 240.0 mg/kg/injection, schedule: Q01DX Z (ip), vehicle: saline 112 % of control

O=C1Nc2cccc3cc(NCC(O)CCCl)cc1c23 (stereo not given)
inactive: dose: 100.0 mg/kg/injection, schedule: Q01DX001 (ip), vehicle: saline 90 % of control | dose: 200.0 mg/kg/injection, schedule: Q01DX001 (ip), vehicle: saline 89 % of control | dose: 400.0 mg/kg/injection, schedule: Q01DX001 (ip), vehicle: saline 100 % of control

C(=C/n1cnc2ccccc21)/c1ccccc1
inactive: dose: 87.5 mg/kg/injection, schedule: Q04DX003 (ip), vehicle: Klucel (hydroxypropylcellulose) (HPC) 92 % of control | dose: 175.0 mg/kg/injection, schedule: Q04DX003 (ip), vehicle: Klucel (hydroxypropylcellulose) (HPC) 96 % of control | dose: 350.0 mg/kg/injection, schedule: Q04DX003 (ip), vehicle: Klucel (hydroxypropylcellulose) (HPC) 91 % of control

CC(C)N1CCC(=O)NC1=O
inactive: [4] 94 % of control | [13] 94 % of control | [5] 94 % of control | [14] 92 % of control | [6] 91 % of control | [15] 103 % of control

CCCCCCCCCCCC(=O)NC(=S)Nc1cc(OC)ccc1OC
inactive: [1] 104 % of control | [2] 111 % of control | [3] 93 % of control

Oc1ccccc1-c1nc2cc(Cl)ccc2o1
inactive: [1] 97 % of control | [2] 97 % of control | [3] 101 % of control

CCOc1ccc(/C=N/NC(=O)c2ccc(N=NN(C)C)cc2)cc1
inactive: dose: 75.0 mg/kg/injection, schedule: Q04DX003 (ip), vehicle: Klucel (hydroxypropylcellulose) (HPC) 94 % of control | dose: 150.0 mg/kg/injection, schedule: Q04DX003 (ip), vehicle: Klucel (hydroxypropylcellulose) (HPC) 90 % of control | dose: 300.0 mg/kg/injection, schedule: Q04DX003 (ip), vehicle: Klucel (hydroxypropylcellulose) (HPC) 87 % of control

O=S(=O)(NCCBr)c1ccccc1
inactive: dose: 75.0 mg/kg/injection, schedule: Q01DX001 (ip), vehicle: carboxymethylcellulose (CMC) 101 % of control | dose: 150.0 mg/kg/injection, schedule: Q01DX001 (ip), vehicle: carboxymethylcellulose (CMC) 114 % of control | dose: 300.0 mg/kg/injection, schedule: Q01DX001 (ip), vehicle: carboxymethylcellulose (CMC) 108 % of control

CC(C)COC(=O)c1ccc(NC(=O)Nc2ccccc2)cc1
inactive: [7] 93 % of control | [8] 92 % of control | [9] 88 % of control | [10] 88 % of control | [11] 97 % of control | [12] 87 % of control

Cc1cccc(Br)[n+]1[O-]
inactive: dose: 50.0 mg/kg/injection, schedule: Q01DX009 (ip), vehicle: saline 110 % of control | [16] 112 % of control | [13] 102 % of control | [14] 97 % of control

CCC(C)(CC(=O)O)CC(=O)O
inactive: [16] 107 % of control | [13] 93 % of control | dose: 200.0 mg/kg/injection, schedule: Q01DX009 (ip), vehicle: saline 93 % of control | [14] 90 % of control | dose: 400.0 mg/kg/injection, schedule: Q01DX009 (ip), vehicle: saline 96 % of control | [15] 92 % of control

CN(c1ccccc1)c1ccc([N+](=O)[O-])cc1[N+](=O)[O-]
inactive: dose: 100.0 mg/kg/injection, schedule: Q01DX001 (ip), vehicle: carboxymethylcellulose (CMC) 98 % of control | dose: 200.0 mg/kg/injection, schedule: Q01DX001 (ip), vehicle: carboxymethylcellulose (CMC) 102 % of control | dose: 400.0 mg/kg/injection, schedule: Q01DX001 (ip), vehicle: carboxymethylcellulose (CMC) 107 % of control

Nc1ccc(NS(=O)(=O)c2ccccc2)nc1
inactive: dose: 100.0 mg/kg/injection, schedule: Q01DX009 (ip), vehicle: Klucel (hydroxypropylcellulose) (HPC) 102 % of control | [4] 106 % of control | dose: 200.0 mg/kg/injection, schedule: Q01DX009 (ip), vehicle: Klucel (hydroxypropylcellulose) (HPC) 96 % of control | [5] 100 % of control | dose: 400.0 mg/kg/injection, schedule: Q01DX009 (ip), vehicle: Klucel (hydroxypropylcellulose) (HPC) 93 % of control | [6] 105 % of control
